Test results taken from the supplement of paper PMC10307832.

What was measured:
Assay in all cases: relative viability (nuclei count vs DMSO), 5 days (fraction); higher = more cells survive
[1] = compound: CN[C@@H]1C[C@H]2O[C@@](C)([C@@H]1OC)n1c3ccccc3c3c4c(c5c6ccccc6n2c5c31)C(=O)NC4 [Staurosporine] + CC(C)C[C@H](NC(=O)[C@H](Cc1ccccc1)NC(=O)c1cnccn1)B(O)O [Bortezomib] (partner 0.002 µM)
Summary of the method: (§1)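 Values are medians from duplicate plates. Each reflects relative viability, defined as the nuclei count of treated wells over that of vehicle wells. Lung cancer cell lines in 1536-well plates were pin-tool dosed one day after seeding with one drug alone or with a fixed anchor-drug dose plus five library-drug doses (not always all listed) in √10 steps, then fixed, stained and imaged at 4× after 5 days.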

Sulindac + Lapatinib = compound: CC1=C(CC(=O)O)c2cc(F)ccc2/C1=C\c1ccc([S+](C)[O-])cc1 [Sulindac] + CS(=O)(=O)CCNCc1ccc(-c2ccc3ncnc(Nc4ccc(OCc5cccc(F)c5)c(Cl)c4)c3c2)o1 [Lapatinib] (partner 2 µM)
Summary of the method: as §1

Sulindac + Navitoclax = compound: CC1=C(CC(=O)O)c2cc(F)ccc2/C1=C\c1ccc([S+](C)[O-])cc1 [Sulindac] + CC1(C)CCC(c2ccc(Cl)cc2)=C(CN2CCN(c3ccc(C(=O)NS(=O)(=O)c4ccc(N[C@H](CCN5CCOCC5)CSc5ccccc5)c(S(=O)(=O)C(F)(F)F)c4)cc3)CC2)C1 [Navitoclax] (partner 0.5 µM)
Summary of the method: as §1

[2] = compound: CN[C@@H]1C[C@H]2O[C@@](C)([C@@H]1OC)n1c3ccccc3c3c4c(c5c6ccccc6n2c5c31)C(=O)NC4 [Staurosporine] + C[C@]1(O)C[C@@H](c2nc(-c3ccc4ccc(-c5ccccc5)nc4c3)c3c(N)nccn32)C1 [Linsitinib] (partner 1 µM)
Summary of the method: as §1

Cell Line: RERF-LC-KJ
- relative viability ([1]; first compound 0.005 µM): 1.15
- relative viability ([1]; first compound 0.01581 µM): 0.926
- relative viability ([1]; first compound 0.05 µM): 0.674
- relative viability ([1]; first compound 0.1581 µM): 0.322
- relative viability ([1]; first compound 0.5 µM): 0.242
- relative viability (Sulindac + Lapatinib; first compound 0.08 µM): 0.888
- relative viability (Sulindac + Lapatinib; first compound 0.253 µM): 0.934
- relative viability (Sulindac + Lapatinib; first compound 0.8 µM): 0.685
- relative viability (Sulindac + Lapatinib; first compound 2.53 µM): 0.862
- relative viability (Sulindac + Lapatinib; first compound 8 µM): 0.943
- relative viability (Sulindac + Navitoclax; first compound 0.08 µM): 1.23
- relative viability (Sulindac + Navitoclax; first compound 0.253 µM): 0.983
- relative viability (Sulindac + Navitoclax; first compound 0.8 µM): 0.797
- relative viability (Sulindac + Navitoclax; first compound 2.53 µM): 0.749
- relative viability (Sulindac + Navitoclax; first compound 8 µM): 1.11
- relative viability ([2]; first compound 0.005 µM): 0.895
- relative viability ([2]; first compound 0.01581 µM): 0.804
- relative viability ([2]; first compound 0.05 µM): 0.431
- relative viability ([2]; first compound 0.1581 µM): 0.213
- relative viability ([2]; first compound 0.5 µM): 0.166

Cell Line: Calu-6
- relative viability ([1]; first compound 0.005 µM): 0.844
- relative viability ([1]; first compound 0.01581 µM): 0.531
- relative viability ([1]; first compound 0.05 µM): 0.313
- relative viability ([1]; first compound 0.1581 µM): 0.14
- relative viability ([1]; first compound 0.5 µM): 0.0926
- relative viability (Sulindac + Lapatinib; first compound 0.08 µM): 1.29
- relative viability (Sulindac + Lapatinib; first compound 0.253 µM): 1.04
- relative viability (Sulindac + Lapatinib; first compound 0.8 µM): 1.09
- relative viability (Sulindac + Lapatinib; first compound 2.53 µM): 1.25
- relative viability (Sulindac + Lapatinib; first compound 8 µM): 1.3
- relative viability (Sulindac + Navitoclax; first compound 0.08 µM): 1.1
- relative viability (Sulindac + Navitoclax; first compound 0.253 µM): 1.04
- relative viability (Sulindac + Navitoclax; first compound 0.8 µM): 0.627
- relative viability (Sulindac + Navitoclax; first compound 2.53 µM): 0.756
- relative viability (Sulindac + Navitoclax; first compound 8 µM): 1.21
- relative viability ([2]; first compound 0.005 µM): 0.92
- relative viability ([2]; first compound 0.01581 µM): 0.776
- relative viability ([2]; first compound 0.05 µM): 0.3
- relative viability ([2]; first compound 0.1581 µM): 0.0858
- relative viability ([2]; first compound 0.5 µM): 0.0592

Cell Line: NCI-H1734
- relative viability ([1]; first compound 0.005 µM): 0.741
- relative viability ([1]; first compound 0.01581 µM): 0.316
- relative viability ([1]; first compound 0.05 µM): 0.251
- relative viability ([1]; first compound 0.1581 µM): 0.127
- relative viability (Sulindac + Lapatinib; first compound 0.08 µM): 1.06
- relative viability (Sulindac + Lapatinib; first compound 0.253 µM): 1.08
- relative viability (Sulindac + Lapatinib; first compound 0.8 µM): 0.893
- relative viability (Sulindac + Lapatinib; first compound 2.53 µM): 0.986
- relative viability (Sulindac + Lapatinib; first compound 8 µM): 1.44
- relative viability (Sulindac + Navitoclax; first compound 0.08 µM): 0.785
- relative viability (Sulindac + Navitoclax; first compound 0.253 µM): 1.03
- relative viability (Sulindac + Navitoclax; first compound 0.8 µM): 0.594
- relative viability (Sulindac + Navitoclax; first compound 2.53 µM): 0.987
- relative viability (Sulindac + Navitoclax; first compound 8 µM): 1.12
- relative viability ([2]; first compound 0.005 µM): 0.849
- relative viability ([2]; first compound 0.01581 µM): 0.473
- relative viability ([2]; first compound 0.05 µM): 0.294
- relative viability ([2]; first compound 0.1581 µM): 0.228
- relative viability ([2]; first compound 0.5 µM): 0.164

Cell Line: PC-14
- relative viability ([1]; first compound 0.005 µM): 0.838
- relative viability ([1]; first compound 0.01581 µM): 0.428
- relative viability ([1]; first compound 0.05 µM): 0.293
- relative viability ([1]; first compound 0.1581 µM): 0.0723
- relative viability ([1]; first compound 0.5 µM): 0.065
- relative viability (Sulindac + Lapatinib; first compound 0.08 µM): 0.349
- relative viability (Sulindac + Lapatinib; first compound 0.253 µM): 0.379
- relative viability (Sulindac + Lapatinib; first compound 0.8 µM): 0.315
- relative viability (Sulindac + Lapatinib; first compound 2.53 µM): 0.276
- relative viability (Sulindac + Lapatinib; first compound 8 µM): 0.311
- relative viability (Sulindac + Navitoclax; first compound 0.08 µM): 0.933
- relative viability (Sulindac + Navitoclax; first compound 0.253 µM): 1.1
- relative viability (Sulindac + Navitoclax; first compound 2.53 µM): 1.07
- relative viability (Sulindac + Navitoclax; first compound 8 µM): 1.14
- relative viability ([2]; first compound 0.005 µM): 0.892
- relative viability ([2]; first compound 0.01581 µM): 0.633
- relative viability ([2]; first compound 0.05 µM): 0.0982
- relative viability ([2]; first compound 0.1581 µM): 0.0802
- relative viability ([2]; first compound 0.5 µM): 0.0859
